For data set [1], the system named is interaction between FREP1 and P. falciparum-infected cell lysate. Description: ELISA of FREP1 binding to P. falciparum-infected cell lysate. The note with it: pulixin 5 μg/mL. Here is the method:
Small molecules that inhibited the FREP1-Plasmodium interaction to block malaria transmission were screened. In brief, P. falciparum-infected (NF54 obtained from the BEI Resources, Manassas, Va., USA) red blood cells (iRBCs) were cultured for 15-17 days. The iRBCs suspended in PBST (PBS containing 0.2% Tween-20) was homogenized by ultra-sonication with six cycles of 10 s of pulse and 50 s of resting on ice for each period. The lysates were centrifuged at 8,000×g for 2 min to remove insoluble materials and cellular debris. Then, 96-well ELISA plates were coated with 50 μL of the iRBC lysate (2 mg/mL protein) overnight at 4° C. After coating, the wells were blocked with 100 μL of 2% bovine serum albumin (BSA) in PBS per well for 1.5 h at room temperature (RT). After removal of the blocking solution, 49 μL of FREP1 (10 μg/mL) in blocking buffer (PBS containing 2% BSA) and 1 μL of fungal extract (2 mg/mL in DMSO) were added to each well, followed by incubation for 1 h at RT. […] Finally, each well was developed with 50 μL of pNPP substrate (Sigma-Aldrich) until the colors were visible, and absorbance at 405 nm was measured. […]
The 15-17-day cultured P. falciparum infected cell lysate was prepared as described above. […] Rabbit anti-FREP1 polyclonal antibodies quantified the retained FREP1 as described above. After reaction with the pNPP, A405 was measured. […]
(ELISA stands for enzyme-linked immunosorbent assay.)

The test system of data set [2] is P. falciparum transmission to An. gambiae. Description: Standard membrane feeding assay (SMFA), transmission-blocking activity by feeding. The format is in vivo. Here is the method: The 15-17-day-old cultured P. falciparum iRBCs containing 2-3% stage V gametocytes were collected and diluted with new O+ type human blood, with the same volume of heat-inactivated AB+ human serum added. The final concentration of stage V gametocytes in the blood was around 0.2%. Then, 3 μL of the candidate fungal extract or pulixin with different concentrations in DMSO was mixed with 297 μL of infected blood and was used to feed about 100 3-5-day-old An. gambiae G3 female mosquitoes for 30 min, and the engorged mosquitoes were maintained with 8% sugar in a BSL-2 insectary (28° C., 12 h light/dark cycle, 80% humidity). The midguts were dissected 7 days after infection and stained with 0.1% mercury dibromofluorescein disodium salt in PBS. The oocysts were counted under a light microscope.

Data set [3] has as its system P. falciparum gametocytes. Description: Conversion ratio from gametocytes to ookinetes. The format is cell-based. The conditions noted are these: pulixin 40 μM. Here is the method: P. falciparum (NF54) was cultured in the complete RPMI-1640 medium containing 4% new 0+ human red blood cells, 10% human AB+ serum, and 12.5 μg/mL of hypoxanthine in a candle jar at 37° C. To prepare P. falciparum ookinetes, 5 mL of day-15 cultured P. falciparum containing ˜2% stage V gametocytes were transferred into a 15 mL centrifuge tube and centrifuged at 650×g for 5 min at RT. The pellet was then resuspended in 500 μL of sterile ookinete culture medium (RPMI-1640 medium containing 20% human serum AB+, 50 μg/mL of hypoxanthine, 2 g/L NaHCO3). The resuspended cells were transferred into a well of a 12-well plate and incubated at room temperature on a shaker (20 rpm) for 24 h to generate ookinetes. Finally, cell mixtures of the ookinetes, gametocytes, and asexual-stage P. falciparum were collected by centrifugation at 650×g for 5 min at RT.
The 15-17-day-old cultured P. falciparum was collected by centrifugation at 500×g for 3 min. The pellets were suspended in ookinete culture medium (incomplete RPMI-1640 containing 20% human serum AB+, 50 μg/mL of hypoxanthine, and 2 g/L of NaHCO3) to obtain 10^5 gametocytes per μL. […] After incubation on a shaker (20 rpm) at RT for 18-24 h, the ookinetes and gametocytes were counted using a Giemsa-stained blood smear under a bright-field microscope. The ratios of gametocytes to ookinetes were calculated.

Data set [4] has as its system asexual-stage P. falciparum. Put plainly: Inhibition assay of asexual Plasmodium falciparum proliferation. It is filed as cell-based. Here is the method: The 3-5-day cultured iRBC were mixed with fresh human RBCs (AB+ type) in complete RPMI-1640 to prepare cultures with 0.5% parasitemia and 2% hematocrit. Pulixin was dissolved in DMSO at the concentration of 1 mg/mL and diluted with DMSO to various levels. A 2 μL pulixin solution mixed with 1 mL of cell culture was added to a 24-well plate. The plate was incubated in a candle jar at 37° C. Approximately 48 h later, the medium was replaced with fresh medium containing same concentration of pulixin. Parasitemia was recorded at 24, 48, 72, and 96 h post-incubation. The test for each concentration was replicated three times. EC50 was determined by analyzing the dose-response curve obtained with GraphPad Prism (GraphPad Software, CA, USA). The assays were repeated.

In data set [5] the test system is human embryonic kidney 293 (HEK293) cells. Description: General cytotoxicity MTT assay. The format is cell-based. The conditions noted are these: 24 h. How it is done: A drug could kill a cell or inhibit the cell proliferation through general cytotoxicity. Vybrant® MTT (3-(4,5-dimethylthiazol-2-yl)-2,5-diphenyl tetrazolium bromide) Cell Proliferation Assay (Thermo Fisher) was used to analyze living cells. The human embryonic kidney 293 (HEK293) cell line was used as the experimental cells. About 20,000 HEK293 cells in 100 μL of culture medium (RPMI 1640+2 mM glutamine+10% fetal bovine serum) were seeded per well in 96-well microplates. After incubation at 37° C. with 5% CO2 for 24 h, 1 μL of pulixin in DMSO at various dilutions was added into each well to obtain a final concentration of 0, 1, 3, 10, 30, and 100 μg/mL. Three replicates were conducted for each concentration. Following the incubation at 37° C. with 5% CO2 for 24 h, 10 μL, of MTT (5 mg/mL in PBS) was added into each well and incubated for 4 h at 37° C. with 5% CO2. All but 25 μL of the medium was removed from the wells, 100 μL of DMSO was added to each well and incubated at 37° C. for 10 min to dissolve formazan crystals for measurement. Optical density was measured at an absorbance wavelength of 540 nm. The data were analyzed using ANOVA in Prism 8 (GraphPad, San Diego, Calif.). The experiment was independently performed twice.

Values joined by “and” are separate entries in the source; they are usually repeats but may differ in a detail not shown here. Equal entries are not always repeated. “Also recorded” adds a separate entry of the source.

Consider `Cc1cc(N)cc2oc(=O)c3c(O)cc(O)cc3c12` [pulixin, 3-amino-7,9-dihydroxy-1-methyl-6H-benzo[c]chromen-6-one], for which the “inhibition of the interaction between the FREP1 protein and P. falciparum-infected cell lysate” value in data set [1] is listed as “about 50%”. For the same compound, the EC50 was 11 µM in data set [2] (Anopheles gambiae, 168 h, read-out: EC50, concentration that inhibits 50% of infection intensity (number of oocysts per mosquito)); 0.012 µg/mL and 47 nM in data set [4] (Plasmodium falciparum, 96 h, parasitemia on day 4, read-out: EC50 inhibiting development of asexual-stage P. falciparum). In addition, in data set [2] (pulixin 40 μM in infected blood), the “inhibition of malaria transmission” value was “completely inhibited; also recorded: completely blocked”. For the same compound, the “conversion of gametocytes to ookinetes versus control” value in data set [3] is recorded as “no significant difference; also recorded: did not inhibit”. Moreover, the “P. falciparum-infected cells on day 4 versus control (0 μg/mL)” value in data set [4] (pulixin greater than 0.01 μg/mL) is “Significantly fewer”. The “density of living HEK293 cells versus control” value in data set [5] (pulixin 0 to 30 μg/mL (116 μM)) is listed as “No significant difference”. The “density of living HEK293 cells versus other concentrations” value in data set [5] (pulixin 100 μg/mL) is “significant reduction; also recorded: significantly lower”.

For the origin of these results see US20230210929A1, “MATERIALS AND METHODS FOR BLOCKING MALARIA INFECTION AND TRANSMISSION” (THE FLORIDA INTERNATIONAL UNIVERSITY BOARD OF TRUSTEES, priority 2021, published 2023).
